Reference: US8278469B2, “17-hydroxy-17-pentafluoroethyl-estra-4,9(10)-dien-11-aryl derivatives, method of production thereof and use thereof for the treatment of diseases” (Bayer Pharma Aktiengesellschaft, priority 2009, dated 2012)
Like-named read-outs stand apart in the source and are kept apart here.

Assays:
[1] = molecular target: T1, human progesterone receptor A (PR-A) (Homo sapiens, UniProt P06401); assay: Progesterone receptor-antagonistic action in stable transfectants of SK-N-MC cells with human PR-A and MTV-LUC reporter; assay type: cell-based; conditions: for Emax: read-out: Progesterone receptor A (PR-A) Efficacy
T1 construct: expressed in transfected cells; host or cells: SK-N-MC human neuroblastoma cells, stably transfected with pRChPR-A-neo and pMMTV-LUC
T1 sequence (P06401 1-769 isoform P06401-2): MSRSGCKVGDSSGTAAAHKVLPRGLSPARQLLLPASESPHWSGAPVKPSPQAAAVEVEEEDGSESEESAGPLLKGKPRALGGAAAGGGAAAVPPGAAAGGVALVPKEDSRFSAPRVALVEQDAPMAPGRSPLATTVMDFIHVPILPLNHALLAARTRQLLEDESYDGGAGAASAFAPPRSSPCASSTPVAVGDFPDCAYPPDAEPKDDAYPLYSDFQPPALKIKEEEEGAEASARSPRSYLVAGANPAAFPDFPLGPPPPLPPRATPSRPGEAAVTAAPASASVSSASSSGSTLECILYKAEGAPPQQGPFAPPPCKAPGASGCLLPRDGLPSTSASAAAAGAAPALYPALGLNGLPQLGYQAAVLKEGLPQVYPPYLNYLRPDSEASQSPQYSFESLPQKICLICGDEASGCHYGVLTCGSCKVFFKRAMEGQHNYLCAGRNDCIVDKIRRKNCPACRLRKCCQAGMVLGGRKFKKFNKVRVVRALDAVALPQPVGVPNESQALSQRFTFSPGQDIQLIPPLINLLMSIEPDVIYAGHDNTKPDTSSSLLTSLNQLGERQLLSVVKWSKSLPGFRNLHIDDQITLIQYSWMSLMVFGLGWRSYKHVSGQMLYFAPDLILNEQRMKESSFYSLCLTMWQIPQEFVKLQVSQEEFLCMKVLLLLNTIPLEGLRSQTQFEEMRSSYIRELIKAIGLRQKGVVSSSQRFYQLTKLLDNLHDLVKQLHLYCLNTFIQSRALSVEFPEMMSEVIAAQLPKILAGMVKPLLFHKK
Procedure: (§1) Progesterone Receptor-Antagonistic Action in Stable Transfectants of Human Neuroblastoma Cells (SK-N-MC Cells) with the Human Progesterone A or Progesterone B Receptor and an MTV-LUC Reporter Construct
(§2) SK-N-MC cells (human neuroblastoma cells), which have been stably transfected with plasmids, which express the human progesterone receptor B (pRChPR-B-neo) or the human progesterone receptor A (pRChPR-A-neo) and a reporter construct (pMMTV-LUC), were incubated for 24 hours either in the absence (negative control) or in the presence of increasing amounts of the respective test compound (0.01 nmol/l, 0.1 nmol/l, 1 nmol/l, 10 nmol/l, 100 nmol/l and 1 μmol/l), in order to determine the agonistic efficacy. As positive control of reporter gene induction, the cells were treated with the synthetic gestagen promegestone (0.01 nmol/l, 0.1 nmol/l, 1 nmol/l, 10 nmol/l, 100 nmol/l and 1 μmol/l). For determination of the antagonistic activity, the cells were treated with 0.1 nmol/l promegestone and additionally with increasing amounts of the respective test compound (0.01 nmol/l, 0.1 nmol/l, 1 nmol/l, 10 nmol/l, 100 nmol/l and 1 μmol/l). The activity of the LUC reporter gene (LUC=luciferase) was determined in the cell lysates and was measured as RLU (relative light units). All measured values are given as percentage efficacy and as EC50 or IC50 concentrations.
(§3) 11β-(4-Acetylphenyl)-20,20,21,21,21-pentafluoro-17-hydroxy-19-nor-17α-pregna-4,9-dien-3-one and 20,20,21,21,21-pentafluoro-17-hydroxy-11β-[4-(hydroxyacetyl)phenyl]-19-nor-17α-pregna-4,9-dien-3-one, very potent and therefore preferred examples from WO98/34947 and WO2008/058767, were tested as comparative compounds along with the test compound.

[2] = molecular target: T2, human progesterone receptor B (PR-B) (Homo sapiens, UniProt P06401); assay: Progesterone receptor-antagonistic action in stable transfectants of SK-N-MC cells with human PR-B and MTV-LUC reporter; assay type: cell-based; conditions: for Emax: read-out: Progesterone receptor B (PR-B) Efficacy
T2 construct: expressed in transfected cells; host or cells: SK-N-MC human neuroblastoma cells, stably transfected with pRChPR-B-neo and pMMTV-LUC
T2 sequence (P06401 1-933): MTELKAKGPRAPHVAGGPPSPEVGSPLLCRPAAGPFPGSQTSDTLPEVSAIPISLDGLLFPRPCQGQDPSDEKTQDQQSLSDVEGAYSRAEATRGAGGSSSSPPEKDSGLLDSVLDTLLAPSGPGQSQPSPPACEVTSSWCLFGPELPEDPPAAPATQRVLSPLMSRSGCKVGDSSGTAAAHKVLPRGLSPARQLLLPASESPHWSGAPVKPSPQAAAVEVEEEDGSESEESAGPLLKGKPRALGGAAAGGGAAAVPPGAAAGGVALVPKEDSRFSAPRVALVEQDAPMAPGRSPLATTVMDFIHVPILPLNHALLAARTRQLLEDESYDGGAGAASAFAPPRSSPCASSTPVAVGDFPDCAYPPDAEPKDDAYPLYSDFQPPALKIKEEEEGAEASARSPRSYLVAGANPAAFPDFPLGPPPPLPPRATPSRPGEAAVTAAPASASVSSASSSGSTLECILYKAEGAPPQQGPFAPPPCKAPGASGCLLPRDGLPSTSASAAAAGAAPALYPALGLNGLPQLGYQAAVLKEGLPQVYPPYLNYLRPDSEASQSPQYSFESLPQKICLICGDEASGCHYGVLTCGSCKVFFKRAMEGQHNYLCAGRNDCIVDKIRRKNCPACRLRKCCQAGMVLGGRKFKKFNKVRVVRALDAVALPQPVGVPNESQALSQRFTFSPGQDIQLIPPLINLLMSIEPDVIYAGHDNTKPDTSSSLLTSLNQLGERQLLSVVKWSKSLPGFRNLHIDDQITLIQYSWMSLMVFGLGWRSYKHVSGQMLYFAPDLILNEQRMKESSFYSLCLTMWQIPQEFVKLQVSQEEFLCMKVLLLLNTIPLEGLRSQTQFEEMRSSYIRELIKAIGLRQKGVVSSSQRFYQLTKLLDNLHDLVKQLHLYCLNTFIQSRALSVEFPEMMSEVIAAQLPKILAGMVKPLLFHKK
Procedure: as §1, §2, §3

[3] = antagonistic activity against 0.1 nmol/l promegestone, SK-N-MC cells, 24 hours, LUC reporter, read-out: Progesterone receptor A (PR-A) Potency IC50
[4] = antagonistic activity against 0.1 nmol/l promegestone, SK-N-MC cells, 24 hours, LUC reporter, read-out: Progesterone receptor B (PR-B) Potency IC50
[5] = antagonistic efficacy against 0.1 nmol/l promegestone, SK-N-MC cells, 24 hours

Structure (SMILES): C[S+]([O-])c1ccc([C@H]2C[C@@]3(C)[C@@H](CC[C@@]3(O)C(F)(F)C(F)(F)F)[C@@H]3CCC4=CC(=O)CCC4=C32)cc1 (mixture of isomers) [Example 3, (11β,17β)-17-Hydroxy-11-{4-[(RS)-methylsulphinyl]phenyl}-17-(pentafluoroethyl)estra-4,9-dien-3-one]
- Emax ([1]; SK-N-MC, 24 h): 100%
- IC50 [1, 3]: 110 pM
- Emax ([2]; SK-N-MC, 24 h): 100%
- IC50 [2, 4]: 120 pM

Structure (SMILES): Cc1ccc(S(=O)(=O)N=S(C)(=O)c2ccc([C@H]3C[C@@]4(C)C(CC[C@@]4(O)C(F)(F)C(F)(F)F)C4CCC5=CC(=O)CCC5=C43)cc2)cc1 (mixture of isomers) [Example 7, N-[{4-[(11β,17β)-17-hydroxy-3-oxo-17-(pentafluoroethyl)estra-4,9-dien-11-yl]phenyl}(RS)(methyl)oxido-λ^6-sulphanylidene]-4-methylbenzene sulphonamide]
- IC50 [1]: 1000 pM
- Emax [1, 5]: 100%
- IC50 [2]: 800 pM
- Emax [2, 5]: 100%

Structure (SMILES): Cc1ccc(S(=O)(=O)N=S(C)(=O)c2ccc(-c3ccc([C@H]4C[C@@]5(C)C(CC[C@@]5(O)C(F)(F)C(F)(F)F)C5CCC6=CC(=O)CCC6=C54)cc3)cc2)cc1 (mixture of isomers) [Example 11, N-[{4′-[(11β,17β)-17-hydroxy-3-oxo-17-(pentafluoroethyl)estra-4,9-dien-11-yl]biphenyl-4-yl}(RS)(methyl)oxido-λ^6-sulphanylidene]-4-methylbenzene sulphonamide]
- IC50 [1, 3]: 10 pM
- Emax [1, 5]: 100%
- IC50 [2, 4]: 10 pM
- Emax [2, 5]: 100%

Structure (SMILES): CC(=O)c1ccc(C2CC3(C)C(CCC3(O)C(F)(F)C(F)(F)F)C3CCC4=CC(=O)CCC4=C23)cc1 (stereo not drawn) [11β-(4-Acetylphenyl)-20,20,21,21,21-pentafluoro-17-hydroxy-19-nor-17α-pregna-4,9-dien-3-one, reference compound]
- Emax [1, 5]: 100%
- Emax [2, 5]: 100%

Structure (SMILES): C[C@]12C[C@H](c3ccc(C(=O)CO)cc3)C3=C4CCC(=O)C=C4CC[C@H]3[C@@H]1CC[C@@]2(O)C(F)(F)C(F)(F)F [20,20,21,21,21-pentafluoro-17-hydroxy-11β-[4-(hydroxyacetyl)phenyl]-19-nor-17α-pregna-4,9-dien-3-one, reference compound]
- Emax ([1]; SK-N-MC, 24 h): 100%
- Emax ([2]; SK-N-MC, 24 h): 100%

Structure (SMILES): CSc1ccc([C@H]2C[C@@]3(C)[C@@H](CC[C@@]3(O)C(F)(F)C(F)(F)F)[C@@H]3CCC4=CC(=O)CCC4=C32)cc1 [Example 1, (11β,17β)-17-hydroxy-11-[4-(methylsulphanyl)phenyl]-17-(pentafluoroethyl)estra-4,9-dien-3-one]
- Emax ([1]; SK-N-MC, 24 h): 100%
- Emax ([2]; SK-N-MC, 24 h): 100%
- IC50 [2, 4]: 12 pM

Structure (SMILES): CCSc1ccc([C@H]2C[C@@]3(C)C(CC[C@@]3(O)C(F)(F)C(F)(F)F)C3CCC4=CC(=O)CCC4=C32)cc1 (stereo partly drawn) [Example 2, (11β,17β)-11-[4-(ethylsulphanyl)phenyl]-17-hydroxy-17-(pentafluoroethyl)estra-4,9-dien-3-one]
- Emax [1, 5]: 100%
- Emax [2, 5]: 100%

Structure (SMILES): CCS(=O)(=O)c1ccc([C@H]2C[C@@]3(C)C(CC[C@@]3(O)C(F)(F)C(F)(F)F)C3CCC4=CC(=O)CCC4=C32)cc1 (stereo partly drawn) [Example 5, (11β,17β)-11-[4-(ethylsulphonyl)phenyl]-17-hydroxy-17-(pentafluoroethyl)estra-4,9-dien-3-one]
- IC50 [1, 3]: 100 pM
- Emax [1, 5]: 100%
- IC50 [2, 4]: 90 pM
- Emax [2, 5]: 100%

Structure (SMILES): C[C@]12C[C@H](c3ccc(SCc4ccccc4)cc3)C3=C4CCC(=O)C=C4CCC3C1CC[C@@]2(O)C(F)(F)C(F)(F)F (stereo partly drawn) [Example 6, (11β,17β)-11-[4-(benzylsulphanyl)phenyl]-17-hydroxy-17-(pentafluoroethyl)estra-4,9-dien-3-one]
- IC50 [1, 3]: 200 pM
- Emax [1, 5]: 100%
- IC50 [2, 4]: 230 pM
- Emax [2, 5]: 100%

Structure (SMILES): C[C@]12C[C@H](c3ccc(S(C)(=N)=O)cc3)C3=C4CCC(=O)C=C4CCC3C1CC[C@@]2(O)C(F)(F)C(F)(F)F (stereo partly drawn) [Example 8, (11β,17β)-17-Hydroxy-11-[4-(RS-methylsulphonimidoyl)phenyl]-17-(pentafluoroethyl)estra-4,9-dien-3-one]
- Emax ([1]; SK-N-MC, 24 h): 100%
- IC50 [1, 3]: 900 pM
- Emax ([2]; SK-N-MC, 24 h): 100%
- IC50 [2, 4]: 900 pM

Structure (SMILES): CSc1ccc(-c2ccc([C@H]3C[C@@]4(C)[C@@H](CC[C@@]4(O)C(F)(F)C(F)(F)F)[C@@H]4CCC5=CC(=O)CCC5=C43)cc2)cc1 [Example 9, (11β,17β)-17-Hydroxy-11-[4′-(methylsulphanyl)biphenyl-4-yl]-17-(pentafluoroethyl)estra-4,9-dien-3-one]
- Emax [1, 5]: 100%
- Emax [2, 5]: 100%

Structure (SMILES): C[C@]12C[C@H](c3ccc(-c4ccc(S(C)(=N)=O)cc4)cc3)C3=C4CCC(=O)C=C4CCC3C1CC[C@@]2(O)C(F)(F)C(F)(F)F (stereo partly drawn) [Example 12, (11β,17β)-17-hydroxy-11-[4′-(RS-methylsulphonimidoyl)biphenyl-4-yl]-17-(pentafluoroethyl)estra-4,9-dien-3-one]
- IC50 [1, 3]: 80 pM
- Emax [1, 5]: 100%
- IC50 [2, 4]: 80 pM
- Emax [2, 5]: 100%

Structure (SMILES): C[C@]12C[C@H](c3ccc(-c4ccc(S)cc4)cc3)C3=C4CCC(=O)C=C4CC[C@H]3[C@@H]1CC[C@@]2(O)C(F)(F)C(F)(F)F [Example 13, (11β,17β)-17-hydroxy-17-(pentafluoroethyl)-11-(4′-sulphanylbiphenyl-4-yl)estra-4,9-dien-3-one]
- IC50 [1, 3]: 72 pM
- Emax [1, 5]: 100%
- IC50 [2, 4]: 72 pM
- Emax [2, 5]: 100%

Structure (SMILES): CN(C)S(=O)(=O)c1ccc(-c2ccc([C@H]3C[C@@]4(C)[C@@H](CC[C@@]4(O)C(F)(F)C(F)(F)F)[C@@H]4CCC5=CC(=O)CCC5=C43)cc2)cc1 [Example 14, 4′-[(11β,17β)-17-hydroxy-3-oxo-17-(pentafluoroethyl)estra-4,9-dien-11-yl]-N,N-dimethylbiphenyl-4-sulphonamide]
- Emax [1, 5]: 100%
- Emax [2, 5]: 100%
